From patent publication US7582725B2, “Agents, which inhibit apoptosis in cells that are involved in wound healing” (Dermatools Biotech GmbH, priority 2001, dated 2009)

How the values were obtained:
Format in all cases: cell-based
MRC-5 fibroblasts [1] = assay: Tension-dependent apoptosis of MRC-5 fibroblasts in collagen matrices (relaxed), DAPI staining; conditions: relaxed collagen matrix
Protocol: 2×10^5 cells are seeded in each collagen matrix. For this purpose, 100 μl of the cell suspension (the appropriate cell titer is adjusted after the trypsinization in serum-free DMEM) are introduced into 1.5 ml reaction vessels pre-equilibrated at 37° C., 100 μl of the neutralized collagen solution are added, and the resulting solution is incubated at 37° C. for 4 min. The collagen concentration is 1.5 mg/ml. The cell/collagen suspension is seeded in 24-well cell culture plates or in 3.5 cm culture dishes. The matrix is polymerized at 37° C. for 60 min.
The matrices are covered with a layer of culture medium (DMEM+10% FCS+50 μg/ml ascorbic acid) and cultivated in an incubator at 37° C. and 8.5% by volume CO2 in a water vapor-saturated air atmosphere for 24 h.
The adherent matrix is cautiously detached with a spatula from the substrate and “floats” in the culture medium without contact with the substrate. The tension is abolished. The cultivation takes place for the period stated in each case.
The cells are cultivated as stated in example 11. Day “0” corresponds to the time after 24 h cultivation with ascorbic acid-containing medium before further cultivation under tensioned or relaxed conditions. After the stated times, the cell/collagen matrix is fixed in 4% (w/v) paraformaldehyde in PBS, followed by DAPI staining. […]

MRC-5 fibroblasts [2] = assay: Incubation of fibroblasts with anti-apoptotic peptides: TSP-1 induced apoptosis, DAPI staining; conditions: 24 h; for Inhibition index [%]: 100−(measured apoptosis index*100/control apoptosis index), 1 μg/ml TSP-1 + peptide 1 mM; for Apoptosis index [%]: static, fresh medium with 1 μg/ml TSP-1 + peptide 1 mM, 3 independent experiments, average ± SD
Protocol: The cells are cultivated under static culture conditions as in example 1/variant 1B1. The cells are seeded in the appropriate culture vessels (e.g. 24-well plate/0.5 ml per well) and employed for the test 3 days after complete confluence is reached. The cells are provided with new medium: • (a) fresh culture medium [basic rate of apoptosis] • (b) fresh culture medium with 1 μg/ml TSP-1 [apoptosis-inducing substance; control] • (c) culture medium (b)+peptide of SEQ ID NO 1; 1 mM • (d) culture medium (b)+peptide of SEQ ID NO 2; 1 mM • (e) culture medium (b)+peptide of SEQ ID NO 3; 1 mM • (f) culture medium (b)+peptide of SEQ ID NO 4; 1 mM • (g) culture medium (b)+peptide of SEQ ID NO 7; 1 mM • (h) culture medium (b)+peptide of SEQ ID NO 8; 1 mM • (i) culture medium (b)+peptide of SEQ ID NO 9; 1 mM • (j) culture medium (b)+peptide of SEQ ID NO 10; 1 mM • (k) culture medium (b)+peptide of SEQ ID NO 11; 1 mM • (l) culture medium (b)+peptide of SEQ ID NO 5; 1 mM • (m) culture medium (b)+peptide of SEQ ID NO 6; 1 mM
After incubation under culture conditions (example 1) for 24 h, the cells are fixed, stained with DAPI and examined morphologically under the fluorescence microscope. The apoptotic cells and the total number of cells are determined, and the apoptosis index is calculated (percent of apoptotic cells). The data from 3 independent experiments are indicated in the following table, indicating the averages and the standard deviation.
The inhibition index of the peptides employed is calculated as follows:
Inhibition index [%]=100−(measured apoptosis index* 100/control apoptosis index)

MRC-5 fibroblasts [3] = assay: Rate of apoptosis of statically cultivated MRC-5 fibroblasts, DAPI staining; conditions: for Apoptosis [%]: static, 24 h, substance in fresh medium, or conditioned medium alone
Protocol: The MRC-5 cell line used is seeded in ungelatinized cell culture vessels. The subsequent cultivation takes place in an incubator at 37° C. and 5% by vol. CO2 in a water vapor-saturated atmosphere. The culture medium is changed every second to third day and, after confluence is reached, the cells are passaged with a division rate from 1:5 to 1:10.
(§1) The culture supernatant from a Petri dish is aspirated off, and the cell lawn is fixed with 1 ml of formaldehyde solution on ice for 15 minutes, washed twice with 2 ml of PBS, treated with 0.5 ml of DAPI solution for 15 minutes, washed with PBS and evaluated under the fluorescence microscope. The UV filter set and a 20× or 40× objective are used. 500-1 000 cells are selected at random, and the cells with apoptotic nuclei are counted.
The apoptosis index is calculated by the following formula: […]
The used culture medium from a confluent MRC-5 fibroblast culture is removed, and the cell lawn is washed once with culture medium and cultivated under the stated conditions for 24 h.
The used culture medium from a confluent culture is removed, and the cell lawn is washed once with culture medium and cultivated under the stated conditions for 24 h.

MRC-5 fibroblasts [4] = assay: Rate of apoptosis of dynamically cultivated MRC-5 fibroblasts (cone and plate shear apparatus), DAPI staining
Protocol: The fibroblasts are initially cultivated under static conditions until confluence is reached. This is followed by cultivation under dynamic conditions in the cone and plate shear apparatus (after Bussolori et al. (1982) Rev. Sci. Instrum. 53, 1851-1854) for 24 h.
This is done by precultivation of the cells initially in gelatinized culture dishes (◯=35 mm) with 0.15 ml/cm^2 culture medium and then further cultivation under turbulent or laminar flow conditions in the cone and plate shear apparatus for a maximum of 24 h. The flow conditions result from the angle of the cone. The flow over the cells is turbulent at a cone angle of 5° and is laminar at a cone angle of 0.5°.
Before use, the cone and plate shear apparatus is cleaned with a soft cloth and 70% (v/v) ethanol, the cone is sterilized and the apparatus is equilibrated at 37° C. in a heating cabinet. […]
as §1, with “The UV filter set and a 20× or 40× objective are used.” left out, “counted. […]” for “counted.”

| Compound | Inhibition index [%] (MRC-5 fibroblasts [2]) | Apoptosis index [%] (MRC-5 fibroblasts [2]) | further results |
| --- | --- | --- | --- |
| CO[C@@H]1C(=O)O[C@H](C)[C@H](C)/C=C(\C)C[C@H](C)C(=O)N[C@@H](C)C(=O)N(C)[C@H](Cc2c[nH]c3ccccc23)C(=O)N[C@H]1c1ccc(O)cc1 [chondramide A, reference compound] |  |  | Apoptosis [%] (MRC-5 fibroblasts [1]; Example 14, 1 μM for 1 h before detachment, 8 h further cultivation): 1.0 ± 0.2% |
| K-R-A-Y-V-V-M-W-K-K (KRAYVVMWKK) [SEQ ID NO 5] | 90.1 ± 4.9 | 0.42 ± 0.21 |  |
| K-R-E-Y-V-V-M-W-K-K (KREYVVMWKK) [SEQ ID NO 6] | 94.4 ± 4.2 | 0.24 ± 0.18 |  |
| R-A-Y-V-V-M (RAYVVM) [SEQ ID NO 1] | 71.4 ± 6.8 | 1.21 ± 0.29 |  |
| R-D-Y-V-V-M (RDYVVM) [SEQ ID NO 11] | 38.9 ± 16.7 | 2.66 ± 0.71 |  |
| R-E-Y-V-V-M (REYVVM) [SEQ ID NO 4] | 80.4 ± 7.0 | 0.87 ± 0.32 |  |
| R-G-Y-V-V-M (RGYVVM) [SEQ ID NO 7] | 53.7 ± 13.9 | 2.00 ± 0.59 |  |
| R-M-Y-V-V-M (RMYVVM) [SEQ ID NO 8] | 42.8 ± 6.9 | 2.46 ± 0.29 |  |
| R-N-Y-V-V-M (RNYVVM) [SEQ ID NO 10] | 13.5 ± 16.2 | 3.70 ± 1.11 |  |
| R-T-Y-V-V-M (RTYVVM) [SEQ ID NO 9] | 25.4 ± 11.8 | 3.19 ± 0.50 |  |
| R-W-Y-V-V-M (RWYVVM) [SEQ ID NO 2] | 53.7 ± 6.8 | 2.00 ± 0.29 |  |
| R-Y-Y-V-V-M (RYYVVM) [SEQ ID NO 3] | 65.3 ± 0.9 | 1.45 ± 0.04 |  |
| thrombospondin 1 [TSP-1] |  |  | Apoptosis [%] (MRC-5 fibroblasts [3]; Example 6): 5.6 ± 0.2%; Apoptosis [%] (MRC-5 fibroblasts [3]; Example 7): 5.6 ± 0.2%; Effect on apoptosis of statically cultivated fibroblasts (in words) (MRC-5 fibroblasts [3]; static culture): increase in spontaneous apoptosis; Apoptosis [%] (MRC-5 fibroblasts [4]; dynamic cultivation, 24 h, conditioned medium alone or fresh medium + TSP-1): 0.4 ± 0.1%; Effect on apoptosis of dynamic fibroblast cell culture (in words) (MRC-5 fibroblasts [4]; dynamic culture): no effect on apoptosis; Apoptosis [%] (MRC-5 fibroblasts [1]; Example 13, DMEM/FCS + substance, 24 h, antibodies 50 μg/ml, Tsp1 20 μg/ml): 10.5 ± 0.5% |
